Data published in PubChem BioAssay (NCI).
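Growth conditions: 96-well plates. Treatment: test compound, 48 hours, 5 concentrations. Analysis: linear interpolation between bracketing concentrations; unreached endpoints set to highest concentration. GI50 is the concentration that inhibits growth by half. TGI: concentration producing complete growth inhibition.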

Legend:
Assay in all cases: growth of human tumour cells (NCI), 48 h
786-0 renal = test system: 786-0 renal
A498 renal = test system: A498 renal
A549 NSCLC = test system: A549 NSCLC
ACHN renal = test system: ACHN renal
BT-549 breast = test system: BT-549 breast
CAKI-1 renal = test system: CAKI-1 renal
CCRF-CEM leukemia = test system: CCRF-CEM leukemia
COLO 205 colon = test system: COLO 205 colon
DU-145 prostate = test system: DU-145 prostate
EKVX NSCLC = test system: EKVX NSCLC
HCC-2998 colon = test system: HCC-2998 colon
HCT-116 colon = test system: HCT-116 colon
HCT-15 colon = test system: HCT-15 colon
HL-60(TB) leukemia = test system: HL-60(TB) leukemia
HOP-62 NSCLC = test system: HOP-62 NSCLC
HOP-92 NSCLC = test system: HOP-92 NSCLC
HS 578T breast = test system: HS 578T breast
HT29 colon = test system: HT29 colon
IGROV1 ovarian = test system: IGROV1 ovarian
K-562 leukemia = test system: K-562 leukemia
KM12 colon = test system: KM12 colon
LOX IMVI melanoma = test system: LOX IMVI melanoma
M14 melanoma = test system: M14 melanoma
MALME-3M melanoma = test system: MALME-3M melanoma
MCF7 breast = test system: MCF7 breast
MDA-MB-231 breast = test system: MDA-MB-231 breast
MDA-MB-435 = test system: MDA-MB-435
MOLT-4 leukemia = test system: MOLT-4 leukemia
NCI-H226 lung = test system: NCI-H226 lung
NCI-H23 lung = test system: NCI-H23 lung
NCI-H522 lung = test system: NCI-H522 lung
NCI/ADR-RES ovarian = test system: NCI/ADR-RES ovarian
OVCAR-3 ovarian = test system: OVCAR-3 ovarian
OVCAR-4 ovarian = test system: OVCAR-4 ovarian
OVCAR-5 ovarian = test system: OVCAR-5 ovarian
OVCAR-8 ovarian = test system: OVCAR-8 ovarian
PC-3 prostate = test system: PC-3 prostate
RPMI-8226 leukemia = test system: RPMI-8226 leukemia
RXF 393 renal = test system: RXF 393 renal
SF-268 CNS = test system: SF-268 CNS
SF-295 CNS = test system: SF-295 CNS
SF-539 CNS = test system: SF-539 CNS
SK-MEL-2 melanoma = test system: SK-MEL-2 melanoma
SK-MEL-28 melanoma = test system: SK-MEL-28 melanoma
SK-MEL-5 melanoma = test system: SK-MEL-5 melanoma
SK-OV-3 ovarian = test system: SK-OV-3 ovarian
SN12C renal = test system: SN12C renal
SNB-19 CNS = test system: SNB-19 CNS
SNB-75 CNS = test system: SNB-75 CNS
SR leukemia = test system: SR leukemia
SW-620 colon = test system: SW-620 colon
T-47D breast = test system: T-47D breast
TK-10 renal = test system: TK-10 renal
UACC-257 melanoma = test system: UACC-257 melanoma
UACC-62 melanoma = test system: UACC-62 melanoma
UO-31 renal = test system: UO-31 renal

For O=c1[nH]cnc2c1ccn2C1OC(CO)C(O)C1O (configuration not stated), the GI50 (786-0 renal) was 3.56 µM, the TGI (786-0 renal) was greater than 100 µM and the GI50 (A498 renal) was 4.72 µM. The TGI (A498 renal) was 70.5 µM, the GI50 (A549 NSCLC) was 7.53 µM and the TGI (A549 NSCLC) was greater than 100 µM. For the same compound, the GI50 (ACHN renal) was 2.51 µM, the TGI (ACHN renal) was greater than 100 µM and the GI50 (BT-549 breast) was 5.86 µM. The TGI (BT-549 breast) was greater than 100 µM, the GI50 (CAKI-1 renal) was 2.57 µM and the TGI (CAKI-1 renal) was greater than 100 µM. The GI50 (CCRF-CEM leukemia) was 4.74 µM, the TGI (CCRF-CEM leukemia) was 96 µM and the GI50 (COLO 205 colon) was 3.41 µM. It also gave a TGI (COLO 205 colon) of 26.5 µM, a GI50 (DU-145 prostate) of 2.34 µM and a TGI (DU-145 prostate) of 23.8 µM. For the same compound, the GI50 (EKVX NSCLC) was 17.8 µM, the TGI (EKVX NSCLC) was greater than 100 µM and the GI50 (HCC-2998 colon) was 7.66 µM. For the same compound, the TGI (HCC-2998 colon) was greater than 100 µM, the GI50 (HCT-116 colon) was 2.29 µM and the TGI (HCT-116 colon) was 28.8 µM. It also gave a GI50 (HCT-15 colon) of 4.1 µM, a TGI (HCT-15 colon) greater than 100 µM and a GI50 (HL-60(TB) leukemia) of 3.88 µM. It also gave a TGI (HL-60(TB) leukemia) of 21.1 µM, a GI50 (HOP-62 NSCLC) of 6.7 µM and a TGI (HOP-62 NSCLC) greater than 100 µM. The GI50 (HOP-92 NSCLC) was 2 µM, the TGI (HOP-92 NSCLC) was 15.5 µM and the GI50 (HS 578T breast) was 14 µM. The TGI (HS 578T breast) was greater than 100 µM, the GI50 (HT29 colon) was 5.73 µM and the TGI (HT29 colon) was greater than 100 µM. It also gave a GI50 (IGROV1 ovarian) of 4.32 µM, a TGI (IGROV1 ovarian) of 35.1 µM and a GI50 (K-562 leukemia) of 5.86 µM. For the same compound, the TGI (K-562 leukemia) was greater than 100 µM, the GI50 (KM12 colon) was 8.89 µM and the TGI (KM12 colon) was greater than 100 µM. For the same compound, the GI50 (LOX IMVI melanoma) was 2.18 µM, the TGI (LOX IMVI melanoma) was 16 µM and the GI50 (M14 melanoma) was 4.36 µM. For the same compound, the TGI (M14 melanoma) was greater than 100 µM, the GI50 (MALME-3M melanoma) was 6.42 µM and the TGI (MALME-3M melanoma) was 32.8 µM. For the same compound, the GI50 (MCF7 breast) was 2.41 µM, the TGI (MCF7 breast) was greater than 100 µM and the GI50 (MDA-MB-231 breast) was 4.27 µM. The TGI (MDA-MB-231 breast) was greater than 100 µM, the GI50 (MDA-MB-435) was 9.35 µM and the TGI (MDA-MB-435) was greater than 100 µM. It also gave a GI50 (MOLT-4 leukemia) of 4.38 µM, a TGI (MOLT-4 leukemia) of 20.3 µM and a GI50 (NCI-H226 lung) of 16.1 µM. For the same compound, the TGI (NCI-H226 lung) was greater than 100 µM, the GI50 (NCI-H23 lung) was 6.01 µM and the TGI (NCI-H23 lung) was 65.4 µM. It also gave a GI50 (NCI-H522 lung) of 7.32 µM, a TGI (NCI-H522 lung) of 34.7 µM and a GI50 (NCI/ADR-RES ovarian) of 3.2 µM. The TGI (NCI/ADR-RES ovarian) was greater than 100 µM, the GI50 (OVCAR-3 ovarian) was 5.68 µM and the TGI (OVCAR-3 ovarian) was greater than 100 µM. For the same compound, the GI50 (OVCAR-4 ovarian) was 1.48 µM, the TGI (OVCAR-4 ovarian) was 28.7 µM and the GI50 (OVCAR-5 ovarian) was 12 µM. It also gave a TGI (OVCAR-5 ovarian) greater than 100 µM, a GI50 (OVCAR-8 ovarian) of 2.3 µM and a TGI (OVCAR-8 ovarian) of 90.4 µM. The GI50 (PC-3 prostate) was 3.35 µM, the TGI (PC-3 prostate) was greater than 100 µM and the GI50 (RPMI-8226 leukemia) was 3.15 µM. For the same compound, the TGI (RPMI-8226 leukemia) was 21.5 µM, the GI50 (RXF 393 renal) was 3.12 µM and the TGI (RXF 393 renal) was 22.9 µM. The GI50 (SF-268 CNS) was 11.7 µM, the TGI (SF-268 CNS) was greater than 100 µM and the GI50 (SF-295 CNS) was 8.6 µM. The TGI (SF-295 CNS) was greater than 100 µM, the GI50 (SF-539 CNS) was 10.7 µM and the TGI (SF-539 CNS) was greater than 100 µM. It also gave a GI50 (SK-MEL-2 melanoma) of 3.04 µM, a TGI (SK-MEL-2 melanoma) of 17.5 µM and a GI50 (SK-MEL-28 melanoma) of 18.6 µM. The TGI (SK-MEL-28 melanoma) was greater than 100 µM, the GI50 (SK-MEL-5 melanoma) was 6.1 µM and the TGI (SK-MEL-5 melanoma) was 19.2 µM. The GI50 (SK-OV-3 ovarian) was 3.72 µM, the TGI (SK-OV-3 ovarian) was greater than 100 µM and the GI50 (SN12C renal) was 3.6 µM. It also gave a TGI (SN12C renal) greater than 100 µM, a GI50 (SNB-19 CNS) of 14.8 µM and a TGI (SNB-19 CNS) greater than 100 µM. The GI50 (SNB-75 CNS) was 3.8 µM, the TGI (SNB-75 CNS) was greater than 100 µM and the GI50 (SR leukemia) was 5.38 µM. The TGI (SR leukemia) was 49.3 µM, the GI50 (SW-620 colon) was 3.17 µM and the TGI (SW-620 colon) was greater than 100 µM. For the same compound, the GI50 (T-47D breast) was 2.49 µM, the TGI (T-47D breast) was 80 µM and the GI50 (TK-10 renal) was 3.64 µM. The TGI (TK-10 renal) was 51.3 µM, the GI50 (UACC-257 melanoma) was 12.3 µM and the TGI (UACC-257 melanoma) was 78 µM. For the same compound, the GI50 (UACC-62 melanoma) was 10.1 µM, the TGI (UACC-62 melanoma) was 27.8 µM and the GI50 (UO-31 renal) was 2.11 µM. For the same compound, the TGI (UO-31 renal) was 8.85 µM.
